Reference: patent US20220387479A1, “NOVEL POVIDONE-IODINE PHARMACEUTICAL PREPARATION AND USES THEREOF” (priority 2021, published 2022)
Where two headings read alike, the source gives them in different places.

System: SARS-CoV-2, USA-WA1/2020 strain
Assay type: cell-based
Conditions: tested conc. 50%; for LRV (log reduction value): compared to the virus control; for Virus titer: lower limit of detection 0.67

SMILES: CCO [Ethanol]
- LRV (log reduction value) (incubation time 15 seconds): >4.0
- Virus titer (incubation time 15 seconds): <0.67 Log10 CCID50 of virus per 0.1 mL
- LRV (log reduction value) (incubation time 30 seconds): >3.83
- Virus titer (incubation time 30 seconds): <0.67 Log10 CCID50 of virus per 0.1 mL
- LRV (log reduction value) (incubation time 60 seconds): >4.0
- Virus titer (incubation time 60 seconds): <0.67 Log10 CCID50 of virus per 0.1 mL
- LRV (log reduction value) (incubation time 5 minutes): >3.83
- Virus titer (incubation time 5 minutes): <0.67 Log10 CCID50 of virus per 0.1 mL
